Like-named read-outs stand apart in the source and are kept apart here.
Columns and labels:
[1] = In situ rat intestinal perfusion (site-specific absorption); assay type: in vivo; conditions: for Peff Meloprolol: 20 μg/mL
From the text: The rat intestine perfusion technique is a direct way to measure the regional absorption properties of a test compound in the gastrointestinal tract. Rat intestinal permeability coefficient (Peff) can be used to predict human in vivo oral absorption of passively absorbed compounds. Fagerholm, M. Johansson, and […], “Comparison between permeability coefficients in rat and human jejunum”, Pharm. […] Meanwhile, some other characteristics such as formulable Maximum Absorbable Dose (MAD), FDA Biopharmaceutical Classification, etc. can also be estimated. […] Rats used in this study were Charles River CD males, ranging in weight from approximately 300-350 grams. Metoprolol (a well-absorbed and passively transported compound) was used as a standard and tested simultaneously along with the ODV compounds. […] All chemicals were of analytical grade. After each experiment, all the analytic assays were performed promptly. For isotope determinations, 0.5 mL of perfusate sample containing ^14C PEG-4000 and ^3H-mannitol was mixed with 5 mL of scintillation cocktail. Radioactivity was counted in a liquid scintillation counter (Wallac 1409). Glucose concentration was determined by the glucose oxidase method (Biochemistry Analyzer). Metoprolol and the ODV compounds were analyzed by HPLC-UV/Vis (HP-1100 with a diode-array detector), using a YMC AQ 120 μ, 5 μ, 150×4.6 mm column and step gradient mobile phase containing water/0.1% TFA and acetonitrile. The ODV compounds and metoroplol were detected at 226 and 272 nm UV wavelength, respectively. Blank perfusate was assayed to evaluate the interference at these chromatographic conditions. The perfusions were performed in three intestinal sections of anesthetized rats: duodenum-jejunum, ileum, and colon. The lengths of the segments were approximately 10-12 cm for small intestine segments and 5-6 cm for colon segments. An inflow cannula was inserted at the proximal end and an outflow cannula was inserted at the distal end. Perfusate was pumped through the segment at 0.19 mL/min, and collected at 20, 40, 55, 70, 85 and 100 minutes. […] The disappearance rates of ODV compound, metoprolol, and glucose were determined from each collection interval by comparing to the initial compound solution remaining in the syringe at the end of the 100 minutes. This is to correct for any losses due to binding to the syringe or tubing. Meanwhile, drug concentration in perfusate samples were corrected for water influx/efflux, which was computed, based on ^14C-PEG-4000 concentration changes. […] Values below this range would indicate tissue damage that allows passage of PEG-4000 outside of the perfused segment, while values above this range would indicate significant water movement out of the segment. Water movement across the gut wall was determined by calculation of net water fluid: Net Water Flux (NWF)=[(1-[…] where PEGout and PEGin are the amount of radioactivity (dpm) of ^14C-PEG-4000 in inlet and outlet sides of the perfused intestinal segment, respectively; Q is the flow rate of perfusate; and L is the length of perfused segment (cm). The presence of the ODV compound in the perfusate was determined by HPLC. The amount of drug present at each time point was corrected for water movement across the wall of the intestine: Cout,[…]) where Cout is the concentration of drug in outlet perfusate; Cout,corr is the concentration of drug in outlet perfusate corrected for water moving in or out of the segment, as determined by the recovery of ^14C-PEG-4000. Effective intestinal permcability, Peff (cm/sec), was determined by the following equation: […] Cin is the concentration of drug in inlet perfusate; 2 μrL is the inner surface area of the perfused segment, with r assumed to be 0.18 cm in the rat (see G. Amidon, […]. Crison. “A theoretical basis for a biopharmaceutic drug classification: The correlation of in vitro drug product dissolution and in vivo bioavailability.” Pharm. Res. 12, 1995, 413-420) and L the length of the perfused segment (cm). […]

[2] = Physical stability of the crystalline form; assay type: physicochemical
[3] = Aqueous solubility (UV spectrophotometry); assay type: physicochemical; conditions: water, thermodynamic from solid
Protocol: The aqueous solubility (reported above) of Form I of ODV succinate was determined according to the following procedure. Materials • Spectrophotometer—Capable of isolating a bandwidth of 2 nm or less at the wavelength of maximum absorbance, and of measuring absorbances in the 0.0 to 1.0 range with a precision of 0.01. A Cary Model 219 spectrophotometer or equivalent is suitable. • Cells—Silica, 1 cm. • Filters—0.45 micron Nylon filters which are chemical resistant or equivalent • Bottles—Glass screw top bottles having a 15 mL or greater capacity. • Shaker—A lateral shaker, wrist shaker, or a vibrator which will not generate heat is suitable. A. For Non UV Absorbing Solvents • 1. To a bottle weigh an amount of sample equivalent to approximately 1½ times the solubility. • 2. […] Agitate the bottles at ambient room temperature for at least 16 hours. • 4. Obtain a clear filtrate layer by either centrifugation of filtration being careful to avoid evaporation. • 5. Quantitatively transfer the solution to a volumetric flask and dilute to volume with water. • 6. Blank the instrument for water. • 7. Make quantitative dilutions to arrive at a suitable concentration for measurement. […] Quantitatively transfer to a volumetric flask with the same solvent used in preparing the standard solution. • 6. Make dilutions as necessary to obtain a concentration suitable for quantitative measurement. […]

[4] = Stability in perfusion buffer and jejunal fluids; assay type: in vitro ADME, rat; conditions: for relative percentage remaining of HPLC peak area: 37° C.; for stability in blank perfusion buffer and jejunal fluids: pH 6.8, 37° C., up to 6 hours
Protocol: The stability of ODV succinate or fumarate in the solutions of blank perfusion buffer (Pβ), and jejunal fluids (perfusion buffer collected by washing the isolated jejunal segment, pH=6.8) was determined at 37° C. for up to 6 hours.

[5] = Bioavailability of O-desmethyl-venlafaxine in beagle dogs; assay type: in vivo; conditions: male, dog, plasma, free ODV levels, mean (% CV); for bioavailability: read-out: Absolute Bioavailability (%)
Protocol: Prior to administration, the oral solution (25 mg/mL) was diluted to a concentration of 7.5 mg/mL with water. […] Six male beagle dogs with body weights ranging between 10.2 and 16.0 kg were used in this study. The dogs were housed and given free access to water and food. The six dogs were dosed in a 4 period study. In Period 1, the dogs received 1 mL of the intravenous solution. In Period 2, the dogs received 10 mL of the oral solution. In Period 3, the dogs received the tablet. In Period 4, the dogs received the capsule. There was a one week wash out period between the first two treatment periods and a one month wash out period between treatment periods 2 and 3. Between periods 3 and 4, there was a one week wash out period. For periods 1 and 2, all dogs were fasted overnight with free access to water and fed after the four-hour bleeding. […] Plasma was separated in a refrigerated centrifuge and stored at -70° C. Plasma samples were then assayed. Plasma O-desmethyl-venlafaxine concentrations were determined by the HPLC method using mass spectrometric detection described in Hicks, […]., Russel, […] high-performance liquid chromatographic method for the simultaneous determination of venlafaxine and O-desmethylvenlafaxine in biological fluids”, Ther. Drug Monit. 16:100-107 (1994), which is hereby incorporated by reference. […] O-desmethyl-venlafaxine-glucuronide levels were determined by subtracting the O-desmethyl-venlafaxine (separate extraction procedure without the use of β-glucuronidase and analyzed by HPLC-MS) concentrations from the total O-desmethyl-venlafaxine concentrations. Noncompartmental pharmacokinetic parameters were calculated from the individual dog plasma O-desmethyl-venlafaxine and O-desmethyl-venlafaxine-glucuronide concentration-time profiles. Area under the plasma concentration-time curves (AUC0-μ) values were calculated by the addition of AUCLast (AUCLast=the linear trapezoid rule from time zero to the last measurable plasma concentration, […]) and […]/lambda. The values for lambda were determined from the long-linear portion of the terminal slope of the plasma O-desmethyl-venlafaxine and O-desmethyl-venlafaxine-glucuronide concentration-time profile after the intravenous dose. […] The peak plasma concentration (Cmax) and the time to reach Cmax (tmax) were noted directly from the plasma concentration-time profiles. Absolute bioavailability was determined by comparing the dose normalized AUC0-μvalues following the intravenous administration. All levels reported as below limit of quantitation (BLQ) were assigned a value of zero for calculation purposes.

Serotonin reuptake = conditions: in vitro; read-out: Inhibition of amine reuptake (IC50), Serotonin; cited from earlier work
Norepinephrine reuptake = conditions: in vitro; read-out: Inhibition of amine reuptake (IC50), Norepinephrine; cited from earlier work
Opiate = conditions: at 1 uM; cited from earlier work
[6] = system: Reserpine-Induce Hypothermia; conditions: i.p.; cited from earlier work
Adrenergic α = conditions: at 1 uM; cited from earlier work
Dopamine reuptake = conditions: in vitro; read-out: Inhibition of amine reuptake (IC50), Dopamine; cited from earlier work
Cholinergic = conditions: at 1 uM; cited from earlier work
[7] = po, 75 mg, Oral Solution (75 mg)
[8] = male, Charles River CD, rat, in vivo, 50 μg/mL, pH 6.8

COCCc1ccc(OCC(O)CNC(C)C)cc1 (centres unmarked) [Meloprolol, Metoprolol, reference compound]
Peff Meloprolol ([1]; Colon, perfused together with ODV fumarate): 11 10^−5 cm/sec
Peff Meloprolol ([1]; Colon, perfused together with ODV succinate): 0.583 ± 0.087 10^−5 cm/sec
Peff Meloprolol ([1]; Ileum, perfused together with ODV fumarate): 53 10^−5 cm/sec
Peff Meloprolol ([1]; Ileum, perfused together with ODV succinate): 3.22 ± 0.07 10^−5 cm/sec
Peff Meloprolol ([1]; Jejunum, perfused together with ODV fumarate): 1.78 ± 0.93 10^−5 cm/sec
Peff Meloprolol ([1]; Jejunum, perfused together with ODV succinate): 2.50 ± 0.11 10^−5 cm/sec

CN(C)CC(c1ccc(O)cc1)C1(O)CCCCC1.O=C(O)CCC(=O)O (centres unmarked) [Form I, O-des-methyl-Venlafaxine succinate monohydrate]
physically stable at relative humidity [2]: 5-95%
physically stable up to (temperature) [2]: at least 105 °C
solubility ([3]; at 25° C.): 32.2 mg/mL

CN(C)CC(c1ccc(O)cc1)C1(O)CCCCC1.O=C(O)CCC(=O)O (centres unmarked) [ODV succinate, O-desmethyl-venlafaxine succinate]
solubility ([3]; general statement): > 30 mg/mL
relative percentage remaining of HPLC peak area ([4]; Blank Perfusion Buffer, 0 hours): 100.0%
relative percentage remaining of HPLC peak area ([4]; Blank Perfusion Buffer, 2 hours): 99.9%
relative percentage remaining of HPLC peak area ([4]; Blank Perfusion Buffer, 3 hours): 100.3%
relative percentage remaining of HPLC peak area ([4]; Blank Perfusion Buffer, 6 hours): 99.9%
relative percentage remaining of HPLC peak area ([4]; Intestinal fluid (pH 6.8, total protein approx. 0.2 mg/ml), 0 hours): 100.0%
relative percentage remaining of HPLC peak area ([4]; Intestinal fluid (pH 6.8, total protein approx. 0.2 mg/ml), 2 hours): 99.6%
relative percentage remaining of HPLC peak area ([4]; Intestinal fluid (pH 6.8, total protein approx. 0.2 mg/ml), 3 hours): 99.8%
relative percentage remaining of HPLC peak area ([4]; Intestinal fluid (pH 6.8, total protein approx. 0.2 mg/ml), 6 hours): 100.1%
stability in blank perfusion buffer and jejunal fluids [4]: no apparent degradation/metabolism
AUC ([5]; iv, 25 mg, Intravenous Solution (25 mg)): 746 ng·h/mL
AUC ([5]; po, 75 mg, Capsule (75 mg)): 904 ng·h/mL
Cmax ([5]; po, 75 mg, Capsule (75 mg)): 465 ng/mL
Tmax ([5]; po, 75 mg, Capsule (75 mg)): 33 min
bioavailability ([5]; po, 75 mg, Capsule (75 mg)): 40%
AUC [5, 7]: 835 ng·h/mL
Cmax [5, 7]: 450 ng/mL
Tmax [5, 7]: 30 min
bioavailability [5, 7]: 37%
AUC ([5]; po, 75 mg, Tablet (75 mg)): 677 ng·h/mL
Cmax ([5]; po, 75 mg, Tablet (75 mg)): 115 ng/mL
Tmax ([5]; po, 75 mg, Tablet (75 mg)): 175 min
bioavailability ([5]; po, 75 mg, Tablet (75 mg)): 31%
Peff as percentage of metoprolol's Peff value [1, 8]: about 10%
Peff's ratio of duodenum-jejunum vs. ileum vs. colon [1, 8]: 1.00:1.90:0.07
human in vivo Fa predicted ([1]; rat, in vivo, 50 μg/mL, pH 6.8): 60-77%

CN(C)CC(c1ccc(O)cc1)C1(O)CCCCC1 (centres unmarked) [O-desmethylvenlafaxine, 1-[2-(dimethylamino)-1-(4-phenol)ethyl]-cyclohexanol]
IC50 (Serotonin reuptake): 180 nM
IC50 (Norepinephrine reuptake): 1160 nM
Affinity for Various Neuroreceptors (% inhibition), Opiate (Opiate): 7%
Reversal of Reserpine-Induce Hypothermia (minimum effect) [6]: 3 mg/kg
Affinity for Various Neuroreceptors (% inhibition), Adrenergic α (Adrenergic α): 0%
IC50 (Dopamine reuptake): 13400 nM
Affinity for Various Neuroreceptors (% inhibition), Cholinergic (Cholinergic): 7%

CN(C)CC(c1ccc(O)cc1)C1(O)CCCCC1.O=C(O)/C=C/C(=O)O (centres unmarked) [ODV fumarate, reference compound]
stability in blank perfusion buffer and jejunal fluids [4]: no apparent degradation/metabolism
MAD predicted ([1]; rat, in vivo): about 440 mg
Peff as percentage of the succinate's Peff values ([1]; rat, in vivo): 27μ40
Peff values ([1]; rat, in vivo): 0.24-0.68 ×10^−5 cm/sec
in vivo Fa estimated ([1]; rat, in vivo): 33-45%

Reference: US7291347B2, “Succinate salt of O-desmethyl-venlafaxine” (Wyeth, priority 2001, dated 2007)
